Measurements published in patent US10562903B2, “Bridged piperidine derivatives” (Hoffmann-La Roche Inc., priority 2015, dated 2020).

Target: γ-secretase (Homo sapiens, UniProt P49768)
Assay: Cellular γ-secretase assay (inhibition of Aβ42 secretion, AlphaLisa)
Format: cell-based
Settings: Human neuroglioma H4 cells overexpressing human APP695 Swedish double mutation (K595N/M596L); 24 hr compound incubation; secreted Aβ42 in supernatant
Experimental: Human neuroglioma H4 cells overexpressing human APP695 with the Swedish double mutation (K595N/M596L) were plated at 30,000 cells/well/100 μl in 96-well plates in IMDM media containing 10% FCS, 0.2 mg/l Hygromycin B and incubated at 37° C., 5% CO2.
3-4 hr post plating, compounds are a diluted in media and 50 μl is added as 1.5-fold concentrate to achieve the final concentration. Compound incubation is performed for 24 hr. Final doses typically range from 4 μM down to 0.0013 μM in half-log steps resulting in a eight point dose response curve.
Appropriate controls using vehicle only and reference compound were applied to this assay. The final concentration of Me2SO was 0.4%.
After incubation at 37° C., 5% CO2, the supernatant was subjected to quantification of secreted Aβ42 by the means of an AlphaLisa assay kit (Human Amyloid beta 1-42 Kit: Cat # AL203C, Perkin Elmer). 20 μl of the cell culture supernatant was transferred to an assay plate. Then 10 μl of a mixture of the AlphaLisa coupled capture antibody and the biotinylated detection antibody was added and incubated for 3 hours at room temperature while softly shaking the assay plate. After a further addition of 20 μl of the Donor beads the assay plate was incubated for 30 min at room temperature and constant shaking without exposure to direct light. The assay plate was then read on a Paradigm AlphaLisa Reader using the build-in program with excitation at 680 nm and emission at […].
The measured signals were then used to calculate IC50 values for inhibition of Aβ42 secretion by nonlinear regression fit analysis using XLfit 5.3 software (IDBS).

Molecule	EC50 [nM]
Cc1nsc(N2CC3CCC(C2)C3Nc2nc3c(OC(C)C(F)(F)F)cccn3n2)n1 (single isomer, unassigned) [Example 5, N-[(8-endo)-3-(3-methyl-1,2,4-thiadiazol-5-yl)-3-azabicyclo[3.2.1]octan-8-yl]-8-[(2R or 2S)-1,1,1-trifluoropropan-2-yl]oxy-[1,2,4]triazolo[1,5-a]pyridin-2-amine]	27
Cc1nsc(N2CC3CCC(C2)C3Nc2nc3c(OC(C)C(F)(F)F)cccn3n2)n1 (single isomer, unassigned) [Example 6, N-[(8 endo)-3-(3-methyl-1,2,4-thiadiazol-5-yl)-3-azabicyclo[3.2.1]octan-8-yl]-8-[(2S or 2R)-1,1,1-trifluoropropan-2-yl]oxy-[1,2,4]triazolo[1,5-a]pyridin-2-amine]	16
Cc1cc(N2CC3CCC(C2)C3Nc2nc3c(O[C@H](C)C(F)(F)F)nccn3n2)sn1 (single isomer, unassigned) [Example 35, N-[(8 endo)-3-(3-methylisothiazol-5-yl)-3-azabicyclo[3.2.1]octan-8-yl]-8-((2R or 2S)-1,1,1-trifluoropropan-2-yl)oxy)-[1,2,4]triazolo[1,5-a]pyrazin-2-amine]	6
Cc1cc(N2CC3CCC(C2)C3Nc2nc3c(O[C@@H](C)C(F)(F)F)nccn3n2)sn1 (single isomer, unassigned) [Example 36, N-[(8 endo)-3-(3-methylisothiazol-5-yl)-3-azabicyclo[3.2.1]octan-8-yl]-8-((2S or 2R)-1,1,1-trifluoropropan-2-yl)oxy)-[1,2,4]triazolo[1,5-a]pyrazin-2-amine]	6
Cc1cc(N2C[C@H]3CC[C@@H](C2)[C@H]3Nc2nc3c(OC(C)C(F)(F)F)cccn3n2)on1 (single isomer, unassigned) [Example 43, N-[(8 endo)-3-(3-methyl-1,2-oxazol-5-yl)-3-azabicyclo[3.2.1]octan-8-yl]-8-[(2R or 2S)-1,1,1-trifluoropropan-2-yl]oxy-[1,2,4]triazolo[1,5-a]pyridin-2-amine]	27
Cc1noc(N2CC3CCC(C2)C3Nc2nc3c(O[C@H](C)C(F)(F)F)ccc(C(F)(F)F)n3n2)n1 (single isomer, unassigned) [Example 81, N-[(8-endo)-3-(3-methyl-1,2,4-oxadiazol-5-yl)-3-azabicyclo[3.2.1]octan-8-yl]-5-(trifluoromethyl)-8-[(1R or 1S)-2,2,2-trifluoro-1-methyl-ethoxy]-[1,2,4]triazolo[1,5-a]pyridin-2-amine]	43
N[(8 endo)-3-(6-methylpyrimidin-4-yl)-3-azabicyclo[3.2.1]octan-8-yl]-8-(2,2,3,3,3-pentafluoropropoxy)-[1,2,4]triazolo[1,5-a]pyridin-2-amine [Example 54]	14
